Measurements taken from the supplement of paper PMC11061612.

Tests used:
[1] = compound: CC1=CN2[C@@H](C1)C=NC3=CC(=C(C=C3C2=O)OC)OCCCCCOC4=C(C=C5C(=C4)N=C[C@@H]6CC(=CN6C5=O)C)OC [SG3199]; conditions: max 0.001 µM
Procedure, shortened: (§1)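 Cancer cell lines were dosed for 72 hours (final DMSO typically 0.2%) after 24 hours at 37°C and 5% CO2 in 1536-well plates containing 7.5 μl DMEM/F12 or RPMI with 10% FBS. Viability came from CellTiter-Glo 2.0 luminescence, scaled between blank-well and DMSO-well means, and dose responses were fitted to a two-parameter logistic curve with a non-linear mixed effects model. The single-agent IC50 was obtained from this fit.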

[2] = compound: CC(C)n1c(=O)n(C)c2cnc3cc(F)c(-c4ccc(OCCCN5CCCCC5)nc4)cc3c21 [AZD1390]; conditions: max 0.3 µM
Procedure, shortened: as §1

[3] = compound: COc1cccc2c1C(=O)c1c(O)c3c(c(O)c1C2=O)C[C@@](O)(C(=O)CO)C[C@@H]3O[C@H]1C[C@H](N)[C@H](O)[C@H](C)O1 [Doxorubicin]; conditions: max 1 µM
Procedure, shortened: as §1

[4] = compound: Cc1cc2ncnn2cc1Nc1ncc2c(n1)n(C1CCOCC1)c(=O)n2C [AZD7648]; conditions: max 10 µM
Procedure, shortened: as §1

[5] = compound: CC1=C(C(=CC=C1)Cl)NC(=O)C2=CN=C(S2)NC3=CC(=NC(=N3)C)N4CCN(CC4)CCO [Dasatinib]; conditions: max 2 µM
Procedure, shortened: as §1

[6] = compound: O=C(c1cc(Cc2n[nH]c(=O)c3ccccc23)ccc1F)N1CCN(C(=O)C2CC2)CC1 [Olaparib]; conditions: max 10 µM
Procedure, shortened: as §1

[7] = compound: Cc1c2c(nn1C)CSCc1cc(n(C)n1)CSc1cc(c3ccccc3c1)OCCCc1c(C(=O)O)n(C)c3c-2c(Cl)ccc13 [AZD5991]; conditions: max 1 µM
Procedure, shortened: as §1

[8] = compound: CN(C)CCCOc1ccc(-c2ccc3ncc4c(c3c2)n(C2CCOCC2)c(=O)n4C)cn1 [AZD0156]
Procedure, shortened: as §1

[9] = compound: C=CCn1c(=O)c2cnc(Nc3ccc(N4CCN(C)CC4)cc3)nc2n1-c1cccc(C(C)(C)O)n1 [AZD1775]
Procedure, shortened: as §1

[10] = compound: COc1cc(Nc2ncc3c(n2)-c2ccc(Cl)cc2C(c2c(F)cccc2OC)=NC3)ccc1C(=O)O [Alisertib]; conditions: max 10 µM
Procedure, shortened: as §1

[11] = compound: COc1cc2ncnc(Nc3ccc(F)c(Cl)c3)c2cc1OCCCN1CCOCC1 [Gefitinib]; conditions: max 10 µM
Procedure, shortened: as §1

[12] = compound: C[C@@H](Oc1cc(-c2cnn(C3CCNCC3)c2)cnc1N)c1c(Cl)ccc(F)c1Cl [Crizotinib]; conditions: max 10 µM
Procedure, shortened: as §1

[13] = compound: CCc1c2c(nc3ccc(O)cc13)-c1cc3c(c(=O)n1C2)COC(=O)[C@]3(O)CC [SN-38]; conditions: max 0.3 µM
Procedure, shortened: as §1

[14] = compound: C[C@@H]1COCCN1C2=NC(=NC(=C2)C3(CC3)[S@](=N)(=O)C)C4=C5C=CNC5=NC=C4 [AZD6738]; conditions: max 10 µM
Procedure, shortened: as §1

[15] = compound: CS(=O)(=O)CCNCc1ccc(-c2ccc3ncnc(Nc4ccc(OCc5cccc(F)c5)c(Cl)c4)c3c2)o1 [Lapatinib]; conditions: max 10 µM
Procedure, shortened: as §1

[16] = compound: Cn1cnc2c(F)c(Nc3ccc(Br)cc3Cl)c(C(=O)NOCCO)cc21 [Selumetinib]; conditions: max 10 µM
Procedure, shortened: as §1

[17] = compound: COc1cccc(OCCCN)c1-c1cc(Nc2cnc(C#N)cn2)n[nH]1 [Prexasertib]; conditions: max 1 µM
Procedure, shortened: as §1

[18] = compound: CN(CC[C@H](CSC1=CC=CC=C1)NC2=C(C=C(C=C2)S(=O)(=O)NC(=O)C3=CC=C(C=C3)N4CCC(CC4)[C@H](C5=CC=CC=C5C6=CC=C(C=C6)Cl)O)S(=O)(=O)C(F)(F)F)CCO [AZD4320]; conditions: max 1 µM
Procedure, shortened: as §1

[19] = compound: C[C@@H](c1ccc2nccn2c1)n1nnc2ncc(-c3cnn(C)c3)nc21 [Savolitinib]; conditions: max 1 µM
Procedure, shortened: as §1

[20] = compound: CCN(CCO)CCCOc1ccc2c(Nc3cc(CC(=O)Nc4cccc(F)c4)[nH]n3)ncnc2c1 [AZD2811]; conditions: max 1 µM
Procedure, shortened: as §1

[21] = compound: C1CN(CCC1(C(=O)N[C@@H](CCO)C2=CC=C(C=C2)Cl)N)C3=NC=NC4=C3C=CN4 [Capivasertib]; conditions: max 10 µM
Procedure, shortened: as §1

[22] = compound: CC1(C)CCC(CN2CCN(c3ccc(C(=O)NS(=O)(=O)c4ccc(NCC5CCOCC5)c([N+](=O)[O-])c4)c(Oc4cnc5[nH]ccc5c4)c3)CC2)=C(c2ccc(Cl)cc2)C1 [Venetoclax]; conditions: max 1 µM
Procedure, shortened: as §1

[23] = compound: CC(=O)c1c(C)c2cnc(Nc3ccc(N4CCNCC4)cn3)nc2n(C2CCCC2)c1=O [Palbociclib]; conditions: max 10 µM
Procedure, shortened: as §1

[24] = compound: Cc1nc(-c2cn3c(n2)-c2ccc(-c4cnn(C(C)(C)C(N)=O)c4)cc2OCC3)n(C(C)C)n1 [Taselisib]; conditions: max 10 µM
Procedure, shortened: as §1

[25] = compound: CC(=O)Nc1cccc(-n2c(=O)n(C3CC3)c(=O)c3c(Nc4ccc(I)cc4F)n(C)c(=O)c(C)c32)c1 [Trametinib]; conditions: max 1 µM
Procedure, shortened: as §1

[26] = compound: COc1nnc2ccc(N3CCC(c4ccc(OCCN5CCN(C)C(=O)[C@H]5C)cc4)CC3)nn12 [AZD5153]; conditions: max 1 µM
Procedure, shortened: as §1

[27] = compound: C[C@@H](Nc1cc(F)cc(F)c1)c1cc(C(=O)N(C)C)cc2c(=O)cc(N3CCOCC3)oc12 [AZD8186]; conditions: max 3 µM
Procedure, shortened: as §1

NB1 (Neuroblastoma)
IC50, cell viability 72 h [1]: > 1 nM
IC50, cell viability 72 h [2]: > 300 nM
IC50, cell viability 72 h [3]: > 1000 nM
IC50, cell viability 72 h [4]: > 10000 nM
IC50, cell viability 72 h [5]: > 2000 nM
IC50, cell viability 72 h [6]: > 10000 nM
IC50, cell viability 72 h [7]: > 1000 nM
IC50, cell viability 72 h ([8]; max 3 µM): > 3000 nM
IC50, cell viability 72 h ([9]; max 3 µM): 1360 nM
IC50, cell viability 72 h [10]: > 10000 nM
IC50, cell viability 72 h [11]: > 10000 nM
IC50, cell viability 72 h [12]: 628 nM
IC50, cell viability 72 h [13]: 24 nM
IC50, cell viability 72 h [14]: 4730 nM
IC50, cell viability 72 h [15]: > 10000 nM
IC50, cell viability 72 h [16]: > 10000 nM
IC50, cell viability 72 h [17]: 184 nM
IC50, cell viability 72 h [18]: > 1000 nM
IC50, cell viability 72 h [19]: > 1000 nM
IC50, cell viability 72 h [20]: 186 nM
IC50, cell viability 72 h [21]: 5180 nM
IC50, cell viability 72 h [22]: > 1000 nM
IC50, cell viability 72 h [23]: > 10000 nM
IC50, cell viability 72 h [24]: 1200 nM
IC50, cell viability 72 h [25]: > 1000 nM
IC50, cell viability 72 h [26]: > 1000 nM
IC50, cell viability 72 h [27]: > 3000 nM

NCI-H1341 (Small Cell Lung Carcinoma)
IC50, cell viability 72 h [1]: > 1 nM
IC50, cell viability 72 h [2]: > 300 nM
IC50, cell viability 72 h [3]: 587 nM
IC50, cell viability 72 h [4]: > 10000 nM
IC50, cell viability 72 h [5]: > 2000 nM
IC50, cell viability 72 h [6]: > 10000 nM
IC50, cell viability 72 h [7]: > 1000 nM
IC50, cell viability 72 h ([8]; max 3 µM): > 3000 nM
IC50, cell viability 72 h ([9]; max 3 µM): 1240 nM
IC50, cell viability 72 h [10]: 910 nM
IC50, cell viability 72 h [11]: > 10000 nM
IC50, cell viability 72 h [12]: > 10000 nM
IC50, cell viability 72 h [13]: 13.8 nM
IC50, cell viability 72 h [14]: 6030 nM
IC50, cell viability 72 h [15]: > 10000 nM
IC50, cell viability 72 h [16]: > 10000 nM
IC50, cell viability 72 h [17]: 47.1 nM
IC50, cell viability 72 h [18]: 59.3 nM
IC50, cell viability 72 h [19]: > 1000 nM
IC50, cell viability 72 h [20]: > 1000 nM
IC50, cell viability 72 h [21]: 9050 nM
IC50, cell viability 72 h [22]: > 1000 nM
IC50, cell viability 72 h [23]: > 10000 nM
IC50, cell viability 72 h [24]: 684 nM
IC50, cell viability 72 h [25]: > 1000 nM
IC50, cell viability 72 h [26]: 739 nM
IC50, cell viability 72 h [27]: > 3000 nM

NCI-H1963 (Small Cell Lung Carcinoma)
IC50, cell viability 72 h [1]: > 1 nM
IC50, cell viability 72 h [2]: > 300 nM
IC50, cell viability 72 h [3]: 830 nM
IC50, cell viability 72 h [4]: > 10000 nM
IC50, cell viability 72 h [5]: > 2000 nM
IC50, cell viability 72 h [6]: > 10000 nM
IC50, cell viability 72 h [7]: > 1000 nM
IC50, cell viability 72 h ([8]; max 1 µM): > 1000 nM
IC50, cell viability 72 h ([9]; max 1 µM): 525 nM
IC50, cell viability 72 h [10]: 208 nM
IC50, cell viability 72 h [11]: > 10000 nM
IC50, cell viability 72 h [12]: 3040 nM
IC50, cell viability 72 h [13]: 36.7 nM
IC50, cell viability 72 h [14]: 2730 nM
IC50, cell viability 72 h [15]: > 10000 nM
IC50, cell viability 72 h [16]: 8820 nM
IC50, cell viability 72 h [17]: 44.3 nM
IC50, cell viability 72 h [18]: 15.2 nM
IC50, cell viability 72 h [19]: > 1000 nM
IC50, cell viability 72 h [20]: 36.1 nM
IC50, cell viability 72 h [21]: > 10000 nM
IC50, cell viability 72 h [22]: 614 nM
IC50, cell viability 72 h [23]: 6900 nM
IC50, cell viability 72 h [24]: 9650 nM
IC50, cell viability 72 h [25]: > 1000 nM
IC50, cell viability 72 h [26]: 99.3 nM
IC50, cell viability 72 h [27]: > 3000 nM

NCI-H2373 (Mesothelioma)
IC50, cell viability 72 h [1]: > 1 nM
IC50, cell viability 72 h [2]: > 300 nM
IC50, cell viability 72 h [3]: 313 nM
IC50, cell viability 72 h [4]: > 10000 nM
IC50, cell viability 72 h [5]: > 2000 nM
IC50, cell viability 72 h [6]: > 10000 nM
IC50, cell viability 72 h [7]: > 1000 nM
IC50, cell viability 72 h ([8]; max 3 µM): > 3000 nM
IC50, cell viability 72 h ([9]; max 3 µM): > 3000 nM
IC50, cell viability 72 h [10]: > 10000 nM
IC50, cell viability 72 h [11]: > 10000 nM
IC50, cell viability 72 h [12]: > 10000 nM
IC50, cell viability 72 h [13]: 58.9 nM
IC50, cell viability 72 h [14]: > 10000 nM
IC50, cell viability 72 h [15]: > 10000 nM
IC50, cell viability 72 h [16]: > 10000 nM
IC50, cell viability 72 h [17]: > 1000 nM
IC50, cell viability 72 h [18]: > 1000 nM
IC50, cell viability 72 h [19]: > 1000 nM
IC50, cell viability 72 h [20]: > 1000 nM
IC50, cell viability 72 h [21]: > 10000 nM
IC50, cell viability 72 h [22]: > 1000 nM
IC50, cell viability 72 h [23]: > 10000 nM
IC50, cell viability 72 h [24]: 3520 nM
IC50, cell viability 72 h [25]: > 1000 nM
IC50, cell viability 72 h [26]: > 1000 nM
IC50, cell viability 72 h [27]: > 3000 nM
